The values that follow come from patent publication US8410113B2, “(2R)-1-(3-chloro-2-pyrazinyl)-2-methylpiperazine and salts thereof” (Biovitrum AB (publ), priority 2002, dated 2013).

Entries after “also recorded” stand apart in the source; their conditions may differ. Some results are limits rather than exact numbers.

Data set [1] can be described thus: Crystallinity (X-rays / powder X-ray diffraction). Type of data set: physicochemical. The following applies: for Crystallinity (Powder X-Ray Diffraction): salts of Example 2C; for degree of crystallinity (Powder X-Ray Diffraction): salts of Example 2B, fumarate; for Crystallinity (X-Rays): salts of Example 2A.
Source text: (§1) Crystallinity (Powder X-Ray Diffraction)
as §1

The nature of data set [2]: Hygroscopicity (DVS, storage at RT/different RHs and at 40° C./75% RH). Type of data set: physicochemical. The protocol:
Hygroscopicity (DVS, Storage at RT/Different RHs and at 40° C./75% RH)

The nature of data set [3]: Intrinsic dissolution rate. Format: physicochemical. The following applies: for intrinsic dissolution rate (in words, order): salts of Example 2B. The source says:
Intrinsic Dissolution Rate (pH 1.2)
(§2) Solubility and Intrinsic Dissolution Rate

The next data set is described as follows: Solubility.
Source text: Solubility (Water, pH 1.2 and pH 7.4 Buffers)
as §2

For data set [4] the following is noted: salts of Example 2C; assessment, no test described; cited from earlier work.
For data set [5] the following is noted: controlled studies; cited from earlier work.
Data set [6] can be described thus: Chemical stability (2 weeks at 65° C.). Format: physicochemical. The following applies: salts of Example 2A, also RT/90% RH. The protocol: Chemical Stability (2 Weeks at 65° C.)
Setting [7] is: salts of Example 2A, DVS, storage at RT/different RHs.
The mark [8] stands for this setting: salts of Example 2C, purified water, preliminary studies.

The molecule `CCOc1ncccc1OCCOc1nccnc1N1CCNC[C@H]1C.O=C(O)CCC(=O)O` yielded a melting point of 116 to 132 °C.
For the molecule `C[C@@H]1CNCCN1c1nccnc1OCCOc1cccnc1OCCN(C)C.O=C(O)C(O)C(O)C(=O)O` [D-tartrate, (2R)-1-[3-(2-{[2-(2-dimethylaminoethoxy)-3-pyridinyl]oxy}ethoxy)-2-pyrazinyl]-2-methylpiperazine, D-tartrate], the “Crystallinity (Powder X-Ray Diffraction)” value in data set [1] is on record as “low degree of crystallinity”. Further, the Hygroscopicity entry in data set [2] (salts of Example 2C) was “very hygroscopic and deliquescent”.
`CCOc1ncccc1OCCOc1nccnc1N1CCNC[C@H]1C` [Example 2B, (2R)-1-(3-{2-[(2-ethoxy-3-pyridinyl)oxy]ethoxy}-2-pyrazinyl)-2-methylpiperazine]: in data set [3], the “intrinsic dissolution rate (in words, order)” value is “base<fumarate<succinate”.
Molecule `C[C@@H]1CNCCN1c1nccnc1OCCOc1cccnc1OCCN(C)C.O=P(O)(O)O` [Example 3C, (2R)-1-[3-(2-{[2-(2-dimethylaminoethoxy)-3-pyridinyl]oxy}ethoxy)-2-pyrazinyl]-2-methylpiperazine, phosphoric acid salt] displayed a melting point of 140 to 168 °C. Besides, the “solubility (in words, comparison of salts)” value in “Solubility” (salts of Example 2C) was “high solubility”. Further, in the data set “Solubility” (water), the solubility is ≥ 590 mg/mL. Further, the “Crystallinity (Powder X-Ray Diffraction)” value in data set [1] is “predominantely crystalline to moderately crystallinity; also recorded: high crystallinity”. The Toxicological acceptability entry in data set [4] is listed as “low toxicity”. Moreover, in data set [2] (salts of Example 2C), the Hygroscopicity entry was “low and low hygroscopicity”.
Take `C[C@@H]1CNCCN1c1nccnc1OCCOc1cccnc1OCCN(C)C.O=C(O)CC(O)(CC(=O)O)C(=O)O` [citrate, (2R)-1-[3-(2-{[2-(2-dimethylaminoethoxy)-3-pyridinyl]oxy}ethoxy)-2-pyrazinyl]-2-methylpiperazine, citrate]: the “Crystallinity (Powder X-Ray Diffraction)” value in data set [1] is reported as “practically amorphous”. The Hygroscopicity result in data set [2] (salts of Example 2C) is “very hygroscopic and deliquescent”.
For the molecule `CCN[C@@H](C)Cc1cccc(C(F)(F)F)c1` [dexfenfluramine], in data set [5], the weight reduction result is “weight reduction”.
Take `C[C@@H]1CNCCN1c1nccnc1OCCOc1cccnc1OCCN(C)C.O=C(O)CN(CCN(CC(=O)O)CC(=O)O)CC(=O)O` [edeteate, (2R)-1-[3-(2-{[2-(2-dimethylaminoethoxy)-3-pyridinyl]oxy}ethoxy)-2-pyrazinyl]-2-methylpiperazine, edeteate]: the “Crystallinity (Powder X-Ray Diffraction)” value in data set [1] is “practically amorphous”. For the same molecule, in data set [2] (salts of Example 2C), the Hygroscopicity result is “very hygroscopic and deliquescent”.
As for `CNCCC(Oc1ccc(C(F)(F)F)cc1)c1ccccc1` (stereo not drawn) [fluoxetine], the weight reduction entry in data set [5] is “weight reduction”.
Take `CCOc1ncccc1OCCOc1nccnc1N1CCNC[C@H]1C.O=C(O)/C=C/C(=O)O` [fumarate, (2R)-1-(3-{2-[(2-ethoxy-3-pyridinyl)oxy]ethoxy}-2-pyrazinyl)-2-methylpiperazine, fumarate, reference compound]: the solubility was > 93 mg/mL in “Solubility” (0.9% w/w NaCl, saline or isotonic) and > 68 mg/mL in the data set “Solubility” (phosphate buffer, pH 7.4, aqueous buffer). Moreover, the “solubility (in words, comparison of salts)” value in “Solubility” (salts of Example 2B) is reported as “inferior to that of the succinate salt”. Besides, the entries for the “degree of crystallinity (Powder X-Ray Diffraction)” value in data set [1] and in data set [1] (listed as fumarate salt) were “succinate>acetate>fumarate” and “inferior to that of the succinate salt”, respectively. For the same molecule, the “intrinsic dissolution rate (in words, order)” value was “base<fumarate<succinate” in data set [3] (fumarate) and “inferior to that of the succinate salt” in data set [3] (listed as fumarate salt, fumarate).
In the case of `C[C@@H]1CNCCN1c1nccnc1OCCOc1cccnc1OCCN(C)C.O=C(O)[C@@H](O)[C@H](O)[C@H](O)[C@@H](O)C(=O)O` [galactareate, (2R)-1-[3-(2-{[2-(2-dimethylaminoethoxy)-3-pyridinyl]oxy}ethoxy)-2-pyrazinyl]-2-methylpiperazine, galactareate (mucic acid salt)], the “Crystallinity (Powder X-Ray Diffraction)” value in data set [1] is recorded as “partially amorphous”.
As to `C[C@@H]1CNCCN1c1nccnc1OCCOc1cccnc1.Cl` [hydrochloride, (2R)-methyl-1-{3-[2-(3-pyridinyloxy)ethoxy]-2-pyrazinyl}piperazine, hydrochloride, reference compound], in data set [1], the “Crystallinity (X-Rays)” value is “lower crystallinity”. Further, the Hygroscopicity result in data set [2] (setting [7]) is reported as “deliquescent”.
With `C[C@@H]1CNCCN1c1nccnc1OCCOc1cccnc1OCCN(C)C.O=C(O)C(=O)O` [oxalate, (2R)-1-[3-(2-{[2-(2-dimethylaminoethoxy)-3-pyridinyl]oxy}ethoxy)-2-pyrazinyl]-2-methylpiperazine, oxalate], the “Crystallinity (Powder X-Ray Diffraction)” value in data set [1] was “high degree of crystallinity”. Besides, in data set [4], the Toxicological acceptability entry is reported as “inappropriate due to toxicological reasons”. Besides, the Hygroscopicity result in data set [2] (salts of Example 2C) is listed as “low”.
Turning to `C[C@@H]1CNCCN1c1nccnc1OCCOc1cccnc1OCCN(C)C.O=C(O)CCC(=O)O` [succinate, (2R)-1-[3-(2-{[2-(2-dimethylaminoethoxy)-3-pyridinyl]oxy}ethoxy)-2-pyrazinyl]-2-methylpiperazine, succinate], in the data set “Solubility” (salts of Example 2B), the “solubility (in words, comparison of salts)” value was “higher than the fumarate salt”. Also, the “intrinsic dissolution rate (in words, order)” value in data set [3] is given as “base<fumarate<succinate”. In addition, the Hygroscopicity result in data set [2] (salts of Example 2C) was “very hygroscopic and deliquescent”.
Regarding “(2R)-1-(3-{2-[(2-ethoxy-3-pyridinyl)oxy]ethoxy}-2-pyrazinyl)-2-methylpiperazine, fumarate [reference compound]”, the Chemical stability entry in data set [6] was “less stable”. Besides, in data set [1], the “Crystallinity (X-Rays)” value is “lower crystallinity”. Moreover, the Hygroscopicity result in data set [2] (setting [7]) was “hydrate conversion”.
Turning to “(2R)-1-[3-(2-{[2-(2-dimethylaminoethoxy)-3-pyridinyl]oxy}ethoxy)-2-pyrazinyl]-2-methylpiperazine, 1,3,5-benzenetricarboxylate”, in the data set “Solubility” (salts of Example 2C), the “solubility (in words, comparison of salts)” value is “lower than for the phosphoric acid salt”. Also, the solubility in “Solubility” (salts of Example 2C, SGF (simulated gastric fluid without enzymes; pH of filtrate 2.9), preliminary studies) was > 19 mg/mL; in the data set “Solubility” (salts of Example 2C, SIF (simulated intestinal fluid without enzymes; pH of filtrate 4.2), preliminary studies), 11 mg/mL; in “Solubility” (setting [8]), “≈ 4 mg/ml”. Moreover, the “Crystallinity (Powder X-Ray Diffraction)” value in data set [1] is recorded as “predominantly crystalline”. The Hygroscopicity entry in data set [2] (salts of Example 2C) is “low”.
“(2R)-1-[3-(2-{[2-(2-dimethylaminoethoxy)-3-pyridinyl]oxy}ethoxy)-2-pyrazinyl]-2-methylpiperazine, 1,5-naphthalenedisulfonate”: the solubility in the data set “Solubility” (salts of Example 2C, medium not stated) was > 540 mg/mL. Further, the “Crystallinity (Powder X-Ray Diffraction)” value in data set [1] was “predominantly crystalline”. The Hygroscopicity entry in data set [2] (salts of Example 2C) is recorded as “moderate”.
For the molecule “(2R)-1-[3-(2-{[2-(2-dimethylaminoethoxy)-3-pyridinyl]oxy}ethoxy)-2-pyrazinyl]-2-methylpiperazine, terephthalate”, the solubility in “Solubility” (setting [8]) was < 1 mg/mL. The “Crystallinity (Powder X-Ray Diffraction)” value in data set [1] is recorded as “predominantly crystalline”. The Hygroscopicity result in data set [2] (salts of Example 2C) was “hight (deliquescent)”.
As to “(2R)-methyl-1-{3-[2-(3-pyridinyloxy)ethoxy]-2-pyrazinyl}piperazine, cinnamate”, the Chemical stability result in data set [6] is reported as “Positive data”. For the same molecule, the “Crystallinity (X-Rays)” value in data set [1] was “Positive results”. The “Intrinsic dissolution rate (IDR)” value in data set [3] (salts of Example 2A, pH 1.2) was 10^−3 mgsec^−1 cm^−2. Moreover, in data set [2] (salts of Example 2A, 40° C./75% RH), the “behavior upon exposition to 40° C./75% RH” value was “good behavior”.
